According to PubChem BioAssay (NCI):
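Step 1: Grow cells in 96-well plates. Step 2: Expose to compound for 48 hours at 5 concentrations. Step 3: Interpolate endpoints linearly; if unreached, use highest concentration. GI50 marks 50% less growth. TGI denotes the concentration required for complete inhibition of growth.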

What was measured:
Test in all cases: DTP human tumour cell line panel, 48 h
SF-295 CNS = test system: SF-295 CNS
MDA-MB-435 = test system: MDA-MB-435
OVCAR-8 ovarian = test system: OVCAR-8 ovarian
SK-MEL-2 melanoma = test system: SK-MEL-2 melanoma
EKVX NSCLC = test system: EKVX NSCLC
MDA-MB-231 breast = test system: MDA-MB-231 breast
CAKI-1 renal = test system: CAKI-1 renal
U251 CNS = test system: U251 CNS
HCC-2998 colon = test system: HCC-2998 colon
SW-620 colon = test system: SW-620 colon
SNB-19 CNS = test system: SNB-19 CNS
RXF 393 renal = test system: RXF 393 renal
SF-268 CNS = test system: SF-268 CNS
IGROV1 ovarian = test system: IGROV1 ovarian
LOX IMVI melanoma = test system: LOX IMVI melanoma
NCI-H23 lung = test system: NCI-H23 lung
HS 578T breast = test system: HS 578T breast
HT29 colon = test system: HT29 colon
SK-OV-3 ovarian = test system: SK-OV-3 ovarian
OVCAR-5 ovarian = test system: OVCAR-5 ovarian
OVCAR-3 ovarian = test system: OVCAR-3 ovarian
786-0 renal = test system: 786-0 renal
UO-31 renal = test system: UO-31 renal
RPMI-8226 leukemia = test system: RPMI-8226 leukemia
MOLT-4 leukemia = test system: MOLT-4 leukemia
SK-MEL-28 melanoma = test system: SK-MEL-28 melanoma
TK-10 renal = test system: TK-10 renal
UACC-257 melanoma = test system: UACC-257 melanoma
NCI-H226 lung = test system: NCI-H226 lung
NCI-H522 lung = test system: NCI-H522 lung
KM12 colon = test system: KM12 colon
SF-539 CNS = test system: SF-539 CNS
HOP-92 NSCLC = test system: HOP-92 NSCLC
PC-3 prostate = test system: PC-3 prostate
MALME-3M melanoma = test system: MALME-3M melanoma
A498 renal = test system: A498 renal
K-562 leukemia = test system: K-562 leukemia
HOP-62 NSCLC = test system: HOP-62 NSCLC
NCI-H460 lung = test system: NCI-H460 lung
HL-60(TB) leukemia = test system: HL-60(TB) leukemia
OVCAR-4 ovarian = test system: OVCAR-4 ovarian
ACHN renal = test system: ACHN renal
COLO 205 colon = test system: COLO 205 colon
SNB-75 CNS = test system: SNB-75 CNS
T-47D breast = test system: T-47D breast
CCRF-CEM leukemia = test system: CCRF-CEM leukemia
SK-MEL-5 melanoma = test system: SK-MEL-5 melanoma
SN12C renal = test system: SN12C renal
MCF7 breast = test system: MCF7 breast
A549 NSCLC = test system: A549 NSCLC
HCT-116 colon = test system: HCT-116 colon
DU-145 prostate = test system: DU-145 prostate
HCT-15 colon = test system: HCT-15 colon
BT-549 breast = test system: BT-549 breast
M14 melanoma = test system: M14 melanoma
NCI/ADR-RES ovarian = test system: NCI/ADR-RES ovarian
UACC-62 melanoma = test system: UACC-62 melanoma

Q: Which results are given for `Cn1cc(-c2nonc2-c2c[nH]c3ccccc23)c2ccccc21`?
A: GI50 (SF-295 CNS): 352 nM; TGI (SF-295 CNS): 2970 nM; GI50 (MDA-MB-435): 182 nM; TGI (MDA-MB-435): 494 nM; GI50 (OVCAR-8 ovarian): 545 nM; TGI (OVCAR-8 ovarian): 14700 nM; GI50 (SK-MEL-2 melanoma): 496 nM; TGI (SK-MEL-2 melanoma): 14600 nM; GI50 (EKVX NSCLC): 567 nM; TGI (EKVX NSCLC): 16000 nM; GI50 (MDA-MB-231 breast): 489 nM; TGI (MDA-MB-231 breast): 3230 nM; GI50 (CAKI-1 renal): 413 nM; TGI (CAKI-1 renal): 15000 nM; GI50 (U251 CNS): 443 nM; TGI (U251 CNS): 18600 nM; GI50 (HCC-2998 colon): 1260 nM; TGI (HCC-2998 colon): 7080 nM; GI50 (SW-620 colon): 335 nM; TGI (SW-620 colon): 15600 nM; GI50 (SNB-19 CNS): 385 nM; TGI (SNB-19 CNS): 10900 nM; GI50 (RXF 393 renal): 378 nM; TGI (RXF 393 renal): 5700 nM; GI50 (SF-268 CNS): 725 nM; TGI (SF-268 CNS): 13200 nM; GI50 (IGROV1 ovarian): 574 nM; TGI (IGROV1 ovarian): 18300 nM; GI50 (LOX IMVI melanoma): 650 nM; TGI (LOX IMVI melanoma): 13000 nM; GI50 (NCI-H23 lung): 850 nM; TGI (NCI-H23 lung): 19500 nM; GI50 (HS 578T breast): 298 nM; TGI (HS 578T breast): 2320 nM; GI50 (HT29 colon): 350 nM; TGI (HT29 colon): 10800 nM; GI50 (SK-OV-3 ovarian): 563 nM; TGI (SK-OV-3 ovarian): 18400 nM; GI50 (OVCAR-5 ovarian): 1240 nM; TGI (OVCAR-5 ovarian): 16400 nM; GI50 (OVCAR-3 ovarian): 323 nM; TGI (OVCAR-3 ovarian): 2010 nM; GI50 (786-0 renal): 611 nM; TGI (786-0 renal): 7940 nM; GI50 (UO-31 renal): 323 nM; TGI (UO-31 renal): 7650 nM; GI50 (RPMI-8226 leukemia): 369 nM; TGI (RPMI-8226 leukemia): 5960 nM; GI50 (MOLT-4 leukemia): 499 nM; TGI (MOLT-4 leukemia): 14800 nM; GI50 (SK-MEL-28 melanoma): 1450 nM; TGI (SK-MEL-28 melanoma): 18100 nM; GI50 (TK-10 renal): 1550 nM; TGI (TK-10 renal): 24400 nM; GI50 (UACC-257 melanoma): 918 nM; TGI (UACC-257 melanoma): 20500 nM; GI50 (NCI-H226 lung): 1430 nM; TGI (NCI-H226 lung): 24300 nM; GI50 (NCI-H522 lung): 366 nM; TGI (NCI-H522 lung): 9790 nM; GI50 (KM12 colon): 396 nM; TGI (KM12 colon): 8740 nM; GI50 (SF-539 CNS): 276 nM; TGI (SF-539 CNS): 1070 nM; GI50 (HOP-92 NSCLC): 1080 nM; TGI (HOP-92 NSCLC): 9910 nM; GI50 (PC-3 prostate): 488 nM; TGI (PC-3 prostate): 17200 nM; GI50 (MALME-3M melanoma): 635 nM; TGI (MALME-3M melanoma): 17700 nM; GI50 (A498 renal): 435 nM; TGI (A498 renal): 2110 nM; GI50 (K-562 leukemia): 223 nM; TGI (K-562 leukemia): > 36900 nM; GI50 (HOP-62 NSCLC): 470 nM; TGI (HOP-62 NSCLC): 17000 nM; GI50 (NCI-H460 lung): 375 nM; TGI (NCI-H460 lung): 7780 nM; GI50 (HL-60(TB) leukemia): 277 nM; TGI (HL-60(TB) leukemia): 731 nM; GI50 (OVCAR-4 ovarian): 1520 nM; TGI (OVCAR-4 ovarian): 17000 nM; GI50 (ACHN renal): 527 nM; TGI (ACHN renal): 13400 nM; GI50 (COLO 205 colon): 465 nM; TGI (COLO 205 colon): 10500 nM; GI50 (SNB-75 CNS): 188 nM; TGI (SNB-75 CNS): 761 nM; GI50 (T-47D breast): 464 nM; TGI (T-47D breast): 28500 nM; GI50 (CCRF-CEM leukemia): 396 nM; TGI (CCRF-CEM leukemia): 27900 nM; GI50 (SK-MEL-5 melanoma): 518 nM; TGI (SK-MEL-5 melanoma): 12900 nM; GI50 (SN12C renal): 477 nM; TGI (SN12C renal): 12100 nM; GI50 (MCF7 breast): 329 nM; TGI (MCF7 breast): 15300 nM; GI50 (A549 NSCLC): 728 nM; TGI (A549 NSCLC): 22100 nM; GI50 (HCT-116 colon): 404 nM; TGI (HCT-116 colon): 10500 nM; GI50 (DU-145 prostate): 511 nM; TGI (DU-145 prostate): 12700 nM; GI50 (HCT-15 colon): 354 nM; TGI (HCT-15 colon): 11300 nM; GI50 (BT-549 breast): 588 nM; TGI (BT-549 breast): 7780 nM; GI50 (M14 melanoma): 317 nM; TGI (M14 melanoma): 12000 nM; GI50 (NCI/ADR-RES ovarian): 378 nM; TGI (NCI/ADR-RES ovarian): 14000 nM; GI50 (UACC-62 melanoma): 341 nM; TGI (UACC-62 melanoma): 5100 nM
